Experimental data reported in US20040266811A1, “Methods for inducing regeneration, remyelination, and hypermyelination of nervous tissue” (priority 2002, published 2004).
“Also recorded” adds a separate entry of the source.

Experiments:
calcineurin = settings: cited from earlier work
[1] = target: T1, full-length FKBP52 (GST fusion protein) (Homo sapiens, UniProt Q02790); test: 3H-FK506 competition assay on bead-immobilized GST-FKBP52; format: binding; settings: 10 nM FK506 with 3H-dihydro-FK506, 200-fold molar excess of cold ligand
T1 construct: GST-FKBP52 was constructed by PCR amplification of full-length FKBP52 from the pcDNA3 vector; made in house; host or cells: bacteria
T1 sequence (Q02790 1-459): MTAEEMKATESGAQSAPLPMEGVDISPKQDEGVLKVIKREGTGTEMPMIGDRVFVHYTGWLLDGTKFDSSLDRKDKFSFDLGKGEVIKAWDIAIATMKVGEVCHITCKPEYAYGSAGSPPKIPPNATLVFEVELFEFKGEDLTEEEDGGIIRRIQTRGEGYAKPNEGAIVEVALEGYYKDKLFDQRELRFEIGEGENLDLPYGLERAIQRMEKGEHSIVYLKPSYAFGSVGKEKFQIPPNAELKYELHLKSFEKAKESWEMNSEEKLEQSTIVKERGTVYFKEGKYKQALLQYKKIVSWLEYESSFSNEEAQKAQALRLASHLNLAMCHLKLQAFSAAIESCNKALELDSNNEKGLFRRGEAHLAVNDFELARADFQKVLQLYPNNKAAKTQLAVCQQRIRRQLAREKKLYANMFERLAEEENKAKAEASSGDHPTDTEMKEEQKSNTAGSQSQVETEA
Protocol: There was virtually no binding of GST alone to FKBP52 (not shown). […] Full-length FKBP52 was expressed as a GST fusion protein, purified over GSH-Sepharose resin. […] After extensive washing, the bound fraction (gray bars) was determined by liquid scintillation counting. […] Values are averages (with standard deviations) of three independent experiments.
Competition of […] binding to FKBP52 was carried out on GSH Sepharose beads from GST-FKBP52 expressed in bacteria. Briefly, GST-FKBP52 was constructed by PCR amplification of full-length FKBP52 from the pcDNA3 vector (Invitrogen, Carlsbad, Calif.), with FKBP52-specific primers flanked by EcORI/BamH1 restriction endonuclease sites. A 1.4-kb fragment was subsequently ligated into EcORI/BamH1, and digested with CIP-treated pGEX-6p to obtain a GST-fusion protein. The correct reading frame was verified by DNA sequencing. GST-FKBP52 fusion proteins were generated upon induction with 0.1 mM IPTG (from a 500-ml culture), and bacterial lysates were incubated with GSH Sepharose beads (Pharmacia, Peapack, N.J.) to collect FKBP52. Following several washes, first in bacterial lysis buffer and subsequently in PBS, the FKBP52 was over 90% pure, and was used for in vitro competition studies.

[2] = system: PC12 cells co-cultured on monolayers of Schwann cells; test: GFP-PC12 / Schwann cell co-culture neurite outgrowth; format: cell-based, Sprague-Dawley rats (Schwann cells); settings: GM-284, 48 h
Protocol: Wild-type and TrkA-overexpressing PC12 cells (Hempstead et al., Overexpression of the trk tyrosine kinase rapidly accelerates nerve growth factor-induced differentiation. Neuron, 9:883-96, 1992) were maintained in DMEM supplemented with 10% calf serum and 5% horse serum, the latter of which was also supplemented with 200 μg/ml G418 to maintain TrkA selection. Cultures were treated with 100 ng/ml NGF or the immunophilin ligands, or treated with Schwann-cell-conditioned medium supplemented with 5% horse serum, as indicated below. To generate GFP-expressing PC12 cells, a bicistronic pCX-bsr retroviral vector (Escalante et al., Phosphorylation of c-Crk II on the negative regulatory Tyr222 mediates nerve growth factor-induced cell spreading and morphogenesis. J. Biol. Chem., 275:24787-797, 2000), which drives expression of green fluorescent protein (GFP), was used to infect dividing PC12 cells.
GFP-expressing virus was produced by lipofectamine-mediated transfection of 1.0 μg of pCX-bsr DNA, together with 1.0 μg of pC-Eco retroviral DNA, into the Bosc23 replication-incompetent ecotropic packaging line (Retromax™, Imgen), according to the manufacturer's protocols. The transfection medium was replaced with 10 ml of DMEM containing 10% fetal calf serum, for 24 h, and then collected and frozen at −70° C. The cells were re-fed with fresh DMEM (10 ml), and maintained for an additional 16 h. […]

For `CCC(C)(C)C(=O)C(=O)N1CCC[C@H]1c1nnc([C@@H]2CCCN2C(=O)C(=O)C(C)(C)CC)o1` [GM-284], the “binding to / inhibition of calcineurin” value (calcineurin) is listed as “neither bind to, nor inhibit, calcineurin”, the “competition for binding of 3H-FK506 to immobilized FKBP52” value [1] is listed as “bind to FKBP52 with similar affinities; also recorded: each ligand is able to compete for binding to the receptor; also recorded: competes with FK506 for binding to full-length FKBP52” and the “neuritogenesis of PC12 cells co-cultured with Schwann cells” value [2] is listed as “extensive neuritogenesis”.
